Reference: article PMC11307993 (ACS Omega, 2024)
Where “and” joins values, the source holds several entries; their conditions need not be identical. Identical values can stand only once. Blank lines part the entries; values can stand above or below the compound they belong to.

Key:
[1] = tested on: rat stomach; assay: Gastric ulcerogenic activity; type: in vivo; conditions: oral 10 mg/kg
[2] = tested on: carrageenan induced rat paw edema; assay: In vivo anti-inflammatory assay, carrageenan-induced paw edema; conditions: 2 mg/kg oral; for % of edema inhibition 1 h: 1 h after carrageenan injection; for % of edema inhibition 3 h: 3 h after carrageenan injection; for % of edema inhibition 5 h: 5 h after carrageenan injection
[3] = tested on: acetic acid-induced writhing; assay: In vivo analgesic assay, acetic acid-induced writhing method; parameters: species or system Wistar rats; conditions: for potency: % inhibition of tested compound / % inhibition of reference (celecoxib); for % inhibition (number of writhing) / no. of writhes (mean ± SE): acetic acid-induced writhing
[4] = tested on: serum levels of LDH, Tn-I, TNF-α and CK-MB; assay: Evaluation of cardiovascular parameters; type: in vivo, rats; conditions: rat serum, 100 mg/kg oral, 2 weeks
[5] = target: T1, COX-2 (Homo sapiens, UniProt P35354); assay: biochemical; type: biochemical; conditions: for SI (selectivity index): IC50 (COX-1)/IC50 (COX-2); for fold less potent than compound 8o against COX-2: ratio of COX-2 IC50 values
T1 sequence (P35354 18-604): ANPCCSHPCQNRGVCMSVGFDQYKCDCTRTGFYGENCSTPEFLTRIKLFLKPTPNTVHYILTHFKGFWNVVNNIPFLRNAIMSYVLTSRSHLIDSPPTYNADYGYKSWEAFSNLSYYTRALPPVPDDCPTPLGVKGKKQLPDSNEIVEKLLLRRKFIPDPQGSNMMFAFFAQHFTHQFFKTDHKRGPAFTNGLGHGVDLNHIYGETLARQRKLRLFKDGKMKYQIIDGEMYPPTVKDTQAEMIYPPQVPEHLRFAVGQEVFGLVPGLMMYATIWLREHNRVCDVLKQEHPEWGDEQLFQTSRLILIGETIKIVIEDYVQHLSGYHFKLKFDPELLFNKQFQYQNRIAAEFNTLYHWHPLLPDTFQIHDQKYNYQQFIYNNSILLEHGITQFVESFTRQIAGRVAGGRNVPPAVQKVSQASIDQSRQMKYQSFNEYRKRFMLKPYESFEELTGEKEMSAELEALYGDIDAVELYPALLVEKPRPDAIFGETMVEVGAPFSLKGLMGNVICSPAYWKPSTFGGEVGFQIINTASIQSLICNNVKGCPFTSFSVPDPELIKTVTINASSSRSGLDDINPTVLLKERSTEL

[6] = target: T2, sEH (Homo sapiens, UniProt P34913); assay: In vitro sEH inhibition assay; type: biochemical; conditions: sEH (IC50, nM)
T2 sequence (P34913 1-555): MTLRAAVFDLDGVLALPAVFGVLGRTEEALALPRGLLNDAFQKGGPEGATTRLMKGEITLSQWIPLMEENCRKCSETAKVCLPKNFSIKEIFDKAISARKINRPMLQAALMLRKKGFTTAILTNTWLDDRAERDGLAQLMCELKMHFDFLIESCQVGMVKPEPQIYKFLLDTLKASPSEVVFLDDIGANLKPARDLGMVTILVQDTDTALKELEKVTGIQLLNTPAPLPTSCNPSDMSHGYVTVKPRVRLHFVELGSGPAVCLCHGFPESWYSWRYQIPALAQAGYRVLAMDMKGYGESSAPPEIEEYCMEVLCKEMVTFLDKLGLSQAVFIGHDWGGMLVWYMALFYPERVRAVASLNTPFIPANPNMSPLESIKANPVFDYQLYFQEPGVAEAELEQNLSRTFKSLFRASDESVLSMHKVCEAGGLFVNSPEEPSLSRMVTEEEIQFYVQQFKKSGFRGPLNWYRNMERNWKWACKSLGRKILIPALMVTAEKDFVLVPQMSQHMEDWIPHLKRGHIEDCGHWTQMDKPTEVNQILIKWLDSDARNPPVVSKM

[7] = tested on: 5-LOX; conditions: read-out: 5-LOX (IC50)
[8] = cited from earlier work

SMILES: Cc1ccc(-c2cc(C(F)(F)F)nn2-c2ccc(S(N)(=O)=O)cc2)cc1 [Celecoxib, reference compound]
score: no. of gastric ulcers [1]: 2.5 ± 0.10
score: severity lesions [1]: 5.80 ± 0.20
% of edema inhibition 1 h [2]: 40%
% of edema inhibition 3 h [2]: 54%
% of edema inhibition 5 h [2]: 22%
potency [3]: 1.00
% inhibition (number of writhing) [3]: 13.5%
no. of writhes (mean ± SE) [3]: 29.00 ± 0.70
% inhibition (number of writhing) ([3]; listed as celecoxib): 13.50%
CK-MB (IU/L) [4]: 96 ± 04 IU/L
LDH (IU/L) [4]: 2100 ± 90 IU/L
troponin-I [4]: 340 ± 10 pg/mL

SMILES: Cc1ccc(C2Nc3nnc(-c4cccnc4)n3C(N)=C2C#N)cc1 (centres unmarked) [Compound 8n, 5-Amino-7,8-dihydro-3-(pyridin-3-yl)-7-p-tolyl-[1,2,4]triazolo[4,3-a]pyrimidine-6-carbonitrile]
IC50 [5]: 21.9 µM
SI (selectivity index) [5]: 10

SMILES: N#CC1=C(N)n2c(nnc2-c2cccnc2)NC1c1ccc(Br)cc1 (centres unmarked) [Compound 8l, 5-Amino-7-(4-bromophenyl)-7,8-dihydro-3-(pyridin-3-yl)-[1,2,4]triazolo [4,3-a]pyrimidine-6-carbonitrile]
IC50 [5]: 53.7 µM
SI (selectivity index) [5]: 4

SMILES: N#CC1=C(N)n2c(nnc2-c2ccccc2)NC1c1ccccc1 (centres unmarked) [Compound 8a, 5-Amino-7,8-dihydro-3,7-diphenyl-[1,2,4]triazolo[4,3-a]pyrimidine-6-carbonitrile]
IC50 [5]: 21.7 µM
SI (selectivity index) [5]: 10

SMILES: N#CC1=C(N)n2c(nnc2-c2cccnc2)NC1c1ccc(Cl)cc1 (centres unmarked) [Compound 8m, 5-Amino-7-(4-chlorophenyl)-7,8-dihydro-3-(pyridin-3-yl)-[1,2,4]triazolo [4,3-a]pyrimidine-6-carbonitrile]
IC50 [5]: 11.6 µM
SI (selectivity index) [5]: 20
IC50 [6]: 2.95 ± 0.08 nM
% of edema inhibition 1 h [2]: 32%
% of edema inhibition 3 h [2]: 59%
% of edema inhibition 5 h [2]: 70%
potency [3]: 3
% inhibition (number of writhing) [3]: 41%
no. of writhes (mean ± SE) [3]: 19.00 ± 0.60
IC50 [7]: 2.9 µM and 3.05 µM
CK-MB (IU/L) [4]: 20 ± 02 IU/L
LDH (IU/L) [4]: 1485 ± 60 IU/L
troponin-I [4]: 128 ± 06 pg/mL

SMILES: COc1ccc(C2Nc3nnc(-c4ccncc4)n3C(N)=C2C#N)cc1 (centres unmarked) [Compound 8j, 5-Amino-7,8-dihydro-7-(4-methoxyphenyl)-3-(pyridin-4-yl)-[1,2,4]-triazolo[4,3-a]pyrimidine-6-carbonitrile]
IC50 [5]: 42.7 µM
SI (selectivity index) [5]: 7
fold less potent than compound 8o against COX-2 [5]: 4 fold

IC50 [6]: 2.1 ± 0.07 nM
IC50 [7]: 3.05 µM
SMILES: COc1ccc(C2Nc3nnc(-c4cccnc4)n3C(N)=C2C#N)cc1 (centres unmarked) [Compound 8o, 5-Amino-7,8-dihydro-7-(4-methoxyphenyl)-3-(pyridin-3-yl)-[1,2,4] triazolo[4,3-a]pyrimidine-6-carbonitrile]
score: no. of gastric ulcers [1]: 0
score: severity lesions [1]: 0
ulceration in the isolated rat stomach (observation) [1]: no ulceration
% of edema inhibition 1 h [2]: 37%
% of edema inhibition 3 h [2]: 61%
% of edema inhibition 5 h [2]: 73%
potency [3]: 3.5
% inhibition (number of writhing) [3]: 47% and 47.50%
no. of writhes (mean ± SE) [3]: 15.00 ± 0.50
CK-MB (IU/L) [4]: 17 ± 01 IU/L
LDH (IU/L) [4]: 1390 ± 50 IU/L
troponin-I [4]: 107 ± 05 pg/mL

SMILES: Cc1ccc(C2Nc3nnc(-c4ccccc4)n3C(N)=C2C#N)cc1 (centres unmarked) [Compound 8d, 5-Amino-7,8-dihydro-3-phenyl-7-p-tolyl-[1,2,4]triazolo[4,3-a]pyrimidine-6-carbonitrile]
IC50 [5]: 46.9 µM
SI (selectivity index) [5]: 6

SMILES: COc1ccc2c(c1)c(CC(=O)O)c(C)n2C(=O)c1ccc(Cl)cc1 [indomethacin]
score: no. of gastric ulcers [1]: 8.5 ± 0.40
score: severity lesions [1]: 12.50 ± 0.70

SMILES: N#CC1=C(N)n2c(nnc2-c2cccnc2)NC1c1ccccc1 (centres unmarked) [Compound 8k, 5-Amino-7,8-dihydro-7-phenyl-3-(pyridin-3-yl)-[1,2,4]triazolo[4,3-a]pyrimidine-6-carbonitrile]
IC50 [5]: 37.5 µM
SI (selectivity index) [5]: 8
fold less potent than compound 8o against COX-2 [5]: 3.5 fold

SMILES: COc1ccc(C2Nc3nnc(-c4ccccc4)n3C(N)=C2C#N)cc1 (centres unmarked) [Compound 8e, 5-Amino-7,8-dihydro-7-(4-methoxyphenyl)-3-phenyl-[1,2,4]triazolo[4,3-a]pyrimidine-6-carbonitrile]
IC50 [5]: 29.7 µM
SI (selectivity index) [5]: 8
fold less potent than compound 8o against COX-2 [5]: 2.8 fold

SMILES: N#CC1=C(N)n2c(nnc2-c2ccncc2)NC1c1ccccc1 (centres unmarked) [Compound 8f, 5-Amino-7,8-dihydro-7-phenyl-3-(pyridin-4-yl)-[1,2,4]triazolo[4,3-a]pyrimidine-6-carbonitrile]
IC50 [5]: 51.5 µM
SI (selectivity index) [5]: 6

SMILES: CC(C)Cc1ccc(C(C)C(=O)O)cc1 (centres unmarked) [ibuprofen]
ulcer index [8]: 21.26
